The target in assay [1] is T1, human TLR7 (Homo sapiens, UniProt Q9NYK1).
T1 construct: host or cells: HEK-Blue hTLR7 (HEK293)
T1 sequence (Q9NYK1 27-1049): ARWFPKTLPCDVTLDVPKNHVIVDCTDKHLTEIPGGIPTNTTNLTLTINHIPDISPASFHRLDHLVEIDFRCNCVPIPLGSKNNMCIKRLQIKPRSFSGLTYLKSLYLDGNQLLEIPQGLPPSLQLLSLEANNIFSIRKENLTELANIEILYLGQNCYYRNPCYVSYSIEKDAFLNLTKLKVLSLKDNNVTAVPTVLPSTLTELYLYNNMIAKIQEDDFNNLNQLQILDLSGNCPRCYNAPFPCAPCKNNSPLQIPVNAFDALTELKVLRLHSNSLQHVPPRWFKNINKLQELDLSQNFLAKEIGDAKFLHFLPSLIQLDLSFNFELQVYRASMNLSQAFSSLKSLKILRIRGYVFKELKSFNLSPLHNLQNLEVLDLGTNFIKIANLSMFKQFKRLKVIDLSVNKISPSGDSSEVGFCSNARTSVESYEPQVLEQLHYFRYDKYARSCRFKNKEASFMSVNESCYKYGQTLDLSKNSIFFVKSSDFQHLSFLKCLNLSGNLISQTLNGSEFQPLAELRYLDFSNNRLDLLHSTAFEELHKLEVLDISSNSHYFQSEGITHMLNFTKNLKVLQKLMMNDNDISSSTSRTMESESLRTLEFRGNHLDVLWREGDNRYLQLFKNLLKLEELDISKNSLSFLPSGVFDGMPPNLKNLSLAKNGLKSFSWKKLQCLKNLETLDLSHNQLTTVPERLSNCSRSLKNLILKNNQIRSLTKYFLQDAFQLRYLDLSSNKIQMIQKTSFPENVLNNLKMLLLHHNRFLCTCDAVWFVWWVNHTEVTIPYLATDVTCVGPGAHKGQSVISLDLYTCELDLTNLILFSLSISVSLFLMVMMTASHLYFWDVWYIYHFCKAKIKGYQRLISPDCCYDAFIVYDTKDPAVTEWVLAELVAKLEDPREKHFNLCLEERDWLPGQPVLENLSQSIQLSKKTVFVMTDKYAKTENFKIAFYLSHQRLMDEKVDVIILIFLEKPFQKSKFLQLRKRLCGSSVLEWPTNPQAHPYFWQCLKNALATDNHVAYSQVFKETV
The assay can be described thus: Inhibitory effect on human TLR7 activation pathway (HEK-Blue hTLR7 SEAP reporter). The format is cell-based. The following applies: HEK-Blue hTLR7 cells, 1 μM resiquimod, 20 h, SEAP OD620. As for the experimental part:
(§1) • 1. HEK-Blue™ hTLR7 cell (Invivogen) • 2. Resiquimod (R848, Invivogen) • 3. Alkaline phosphatase detection medium (Quanti-Blue Detection, Invivogen) • 4. Blasticidin (Invivogen) • 5. Zeocin (Invivogen) • 6. Normocin (Invivogen) • 7. DMEM/HIGH Glucose (GE Healthcare) • 8. Fetal bovine serum (FBS, Gibco) • 9. Phosphate-buffered saline (Shanghai BasalMedia Technologies Co., Ltd.) • 10. Sterile purified water (made in-house by Shanghai Hengrui) • 11. 15 mL centrifuge tube (Corning) • 12. %-well formulating plate (Corning) • 13. 96-well flat-bottom cell culture plate (Corning) • 14. Constant-temperature cell incubator (Thermo scientific) • 15. Constant-temperature incubator (Shanghai Yiheng Scientific Instruments Co., Ltd.) • 16. PHERAstar FS microplate reader (BMG Labtech)
(§2) HEK-Blue™ hTLR7 cells were purchased from Invivogen. These cells are HEK293 cells transfected with the human Toll-like receptor 7 (TLR7) gene and the secreted alkaline phosphatase reporter gene (SEAP). The alkaline phosphatase reporter gene (SEAP) is under the regulation of the IFN—P minimal promoter comprising 5 NF-kB and AP-1 binding sites. Upon activation of TLR7 with an agonist, SEAP secretion is induced via downstream NF-kB and AP-1. After addition of an antagonist compound, the pathway described above is inhibited, and SEAP secretion is reduced. The activity of the compounds for the TLR7 pathway was evaluated by measuring OD620 through the SEAP substrate.
(§3) 20 mM test compounds dissolved in 100% DMSO were serially diluted with 100% DMSO to 2000, 400, 80, 16, 3.2, 0.64, 0.128, 0.0256 μM, with blank wells containing 100% DMSO. The compounds and 100% DMSO were then 20-fold diluted in DMEM/HIGH glucose media containing 10% inactivated FBS (complete media, the same applies below). Resiquimod was diluted to 10 μM with sterile water. The 10 μM resiquimod dilution in sterile water was added to a 96-well cell culture plate at 20 μL/well. The above compounds diluted in complete media and 100% DMSO were then added at 20 μL/well to wells containing resiquimod, 20 μL of sterile water and 20 μL of 100% DMSO diluted in the complete medium were added to negative control wells.
(§4) HEK-Blue™ hTLR7 cells were cultured in a DMEM/HIGH glucose medium containing 10% inactivated FBS, 100 μg/mL Normocin, 10 μg/mL blasticidin, and 100 μg/mL Zeocin. Cells that were in a good state of growth and had grown to 70%-80% were collected. The growth medium was discarded, 5-10 mL of PBS pre-heated at 37° C. was added to wash the cells once, and 2-5 mL of pre-heated PBS was added. The cells were cultured at 37° C. for 1-2 min, dispersed by pipetting, transferred to a 15 mL centrifuge tube, and counted, and the cell density was adjusted to 4.8-10′/mL with the complete medium. After density adjustment, 160 μL of the resulting cell suspension was added to the above 96-well cell culture plate to a final number of cells per well of 76,500/well. The final concentration of resiquimod was 1 μM, and the final concentrations of the test compounds were 10,000, 2000, 400, 80, 16, 3.2, 0.64, and 0.128 nM. The cells were cultured in a 37° C., 5% CO2 incubator for 20 h. Then 20 μL of the supernatant was added to 180 μL of the prepared alkaline phosphatase detection medium and incubated in the dark in a constant-temperature incubator at 37° C. for 120 min. Then the OD620 absorbance readings were taken on a microplate reader. The inhibition rate was calculated using the following formula: […]
Inhibition curves were plotted using Graphpad Prism software according to the concentrations of the compounds and the corresponding inhibition rates, and the concentrations of the compounds at which the inhibition rate reached 50%, i.e., IC50 values, were calculated and are shown in Table 1.

The target of assay [2] is T2, human TLR8 (Homo sapiens, UniProt Q9NR97).
T2 construct: host or cells: HEK-Blue hTLR8 (HEK293)
T2 sequence (Q9NR97 27-1041): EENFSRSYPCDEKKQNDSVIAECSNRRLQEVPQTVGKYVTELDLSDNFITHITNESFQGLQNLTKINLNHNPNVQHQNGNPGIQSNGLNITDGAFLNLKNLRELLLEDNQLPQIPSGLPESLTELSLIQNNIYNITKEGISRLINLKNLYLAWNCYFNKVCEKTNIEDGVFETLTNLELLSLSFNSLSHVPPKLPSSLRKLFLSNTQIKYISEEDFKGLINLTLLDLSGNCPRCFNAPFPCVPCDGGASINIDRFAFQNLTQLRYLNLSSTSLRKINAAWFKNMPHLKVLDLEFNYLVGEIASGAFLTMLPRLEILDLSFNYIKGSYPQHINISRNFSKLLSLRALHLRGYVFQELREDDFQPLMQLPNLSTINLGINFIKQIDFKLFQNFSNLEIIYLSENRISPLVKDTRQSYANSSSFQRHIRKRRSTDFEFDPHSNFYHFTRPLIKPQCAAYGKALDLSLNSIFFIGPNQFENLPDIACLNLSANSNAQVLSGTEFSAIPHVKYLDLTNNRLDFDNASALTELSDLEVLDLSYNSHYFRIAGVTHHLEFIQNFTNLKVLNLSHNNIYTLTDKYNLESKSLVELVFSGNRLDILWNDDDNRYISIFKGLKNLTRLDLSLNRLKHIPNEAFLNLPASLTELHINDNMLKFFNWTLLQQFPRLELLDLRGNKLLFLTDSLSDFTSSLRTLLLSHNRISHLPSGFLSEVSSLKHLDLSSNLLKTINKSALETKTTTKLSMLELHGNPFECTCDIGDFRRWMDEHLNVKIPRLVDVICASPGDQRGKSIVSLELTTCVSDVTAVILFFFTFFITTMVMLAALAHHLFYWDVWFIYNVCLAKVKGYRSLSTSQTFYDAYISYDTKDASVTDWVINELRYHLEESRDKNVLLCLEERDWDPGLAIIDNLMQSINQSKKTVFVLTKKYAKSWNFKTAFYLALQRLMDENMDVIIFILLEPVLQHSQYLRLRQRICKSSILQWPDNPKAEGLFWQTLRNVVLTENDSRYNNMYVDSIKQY
The assay can be described thus: Inhibitory effect on human TLR8 pathway (HEK-Blue hTLR8 SEAP reporter). The class given is cell-based. Conditions: HEK-Blue hTLR8 cells, 6 μM resiquimod, 20 h, SEAP OD620. Here is the method: as §1, with “hTLR8” for “hTLR7”, “96-well” for “%-well”
as §2, with “hTLR8” for “hTLR7”, “8 (TLR8)” for “7 (TLR7)”, “TLR8” for “TLR7”
as §3, with “to 60” for “to 10”, “The 60” for “The 10”
as §4, with “HEK-Blue™ hTLR8” for “HEK-Blue™ hTLR7”, “to 70%-8%” for “to 70%-80%”, “to 4.8×10^5/mL” for “to 4.8-10′/mL”, “was 6” for “was 1”, “min. The” for “min. Then the”
Inhibition curves were plotted using Graphpad Prism software according to the concentrations of the compounds and the corresponding inhibition rates, and the concentrations of the compounds at which the inhibition rate reached 50%, i.e., IC50 values, were calculated and are shown in Table 2.

Experimental findings from patent US20240360133A1, “FUSED TRICYCLIC COMPOUND, PREPARATION METHOD THEREFOR AND APPLICATION THEREOF IN MEDICINE” (Jiangsu Hengrui Pharmaceuticals Co., Ltd., priority 2020, published 2024) are described below.

`Cc1cc(-c2[nH]c3cc4c(nc3c2C(C)C)CC(NC2CCOC2)CC4)cc(C)n1` (centres unmarked) [Example 3, 2-(2,6-Dimethylpyridin-4-yl)-3-isopropyl-N-(tetrahydrofuran-3-yl)-5,6,7,8-tetrahydro-1H-pyrrolo[3,2-b]quinolin-6-amine] gave an IC50 in assay [1] of 14.9 nM.

`Cc1cc(-c2[nH]c3cc4c(nc3c2C2CCOCC2)CNCC4)cc(C)n1` [Example 6, 2-(2,6-Dimethylpyridin-4-yl)-3-(tetrahydro-2H-pyran-4-yl)-5,6,7,8-tetrahydro-1H-pyrrolo[3,2-b][1,7]naphthyridine] registered a half-inhibitory concentration (IC50) in assay [2] of 10.5 nM. In other words, the double-digit nanomolar range.
